Test results from ChEMBL document CHEMBL1134253, “HIV Rev peptides conjugated with peptide nucleic acids and their efficient binding to RRE RNA” (Bioorg Med Chem Lett, 2001).
pKd: −log10 of the molar value.

Experiments:
[1] = molecular target: Rev responsive element (RRE) RNA; experiment: Dissociation constant of compound with Rev-responsive element (RRE) IIB RNA was determined by the competition assay; assay type: nucleic-acid assay
[2] = test system: Rev responsive element (RRE) RNA; experiment: Ratio of the dissociation constant between Rev37-50 and the PNA-peptide; assay type: nucleic-acid assay

| pKd [1] | Ratio [2] | Compound |
| --- | --- | --- |
| 7.47 | 2.5 | C[C@H](NC(=O)CN(CCNC(=O)CN(CCNC(=O)CN(CCNC(=O)CCC(=O)O)C(=O)Cn1ccc(N)nc1=O)C(=O)Cn1ccc(N)nc1=O)C(=O)Cn1ccc(N)nc1=O)C(=O)N[C@@H](CCCNC(=N)N)C(=O)N[C@@H](CCCNC(=N)N)C(=O)N[C@@H](CC(N)=O)C(=O)N[C@@H](CCCNC(=N)N)C(=O)N[C@@H](CCCNC(=N)N)C(=O)N[C@@H](CCCNC(=N)N)C(=O)N[C@@H](CCCNC(=N)N)C(=O)N[C@@H](Cc1c[nH]c2ccccc12)C(=O)N[C@@H](CCCNC(=N)N)C(=O)N[C@@H](CCC(=O)O)C(=O)N[C@@H](CCCNC(=N)N)C(=O)N[C@@H](CCC(N)=O)C(=O)N[C@H](CCCNC(=N)N)C(N)=O |
| 7.41 | 2.2 | Cc1cn(CC(=O)N(CCNC(=O)CCC(=O)O)CC(=O)N[C@@H](C)C(=O)N[C@@H](CCCNC(=N)N)C(=O)N[C@@H](CCCNC(=N)N)C(=O)N[C@@H](CC(N)=O)C(=O)N[C@@H](CCCNC(=N)N)C(=O)N[C@@H](CCCNC(=N)N)C(=O)N[C@@H](CCCNC(=N)N)C(=O)N[C@@H](CCCNC(=N)N)C(=O)N[C@@H](Cc2c[nH]c3ccccc23)C(=O)N[C@@H](CCCNC(=N)N)C(=O)N[C@@H](CCC(=O)O)C(=O)N[C@@H](CCCNC(=N)N)C(=O)N[C@@H](CCC(N)=O)C(=O)N[C@H](CCCNC(=N)N)C(N)=O)c(=O)[nH]c1=O |
| 7.55 | 3.1 | C[C@H](NC(=O)CN(CCNC(=O)CN(CCNC(=O)CCC(=O)O)C(=O)Cn1ccc(N)nc1=O)C(=O)Cn1ccc(N)nc1=O)C(=O)N[C@@H](CCCNC(=N)N)C(=O)N[C@@H](CCCNC(=N)N)C(=O)N[C@@H](CC(N)=O)C(=O)N[C@@H](CCCNC(=N)N)C(=O)N[C@@H](CCCNC(=N)N)C(=O)N[C@@H](CCCNC(=N)N)C(=O)N[C@@H](CCCNC(=N)N)C(=O)N[C@@H](Cc1c[nH]c2ccccc12)C(=O)N[C@@H](CCCNC(=N)N)C(=O)N[C@@H](CCC(=O)O)C(=O)N[C@@H](CCCNC(=N)N)C(=O)N[C@@H](CCC(N)=O)C(=O)N[C@H](CCCNC(=N)N)C(N)=O |
| < 4.00 | – | CC(=O)NCCN(CC(=O)NCCN(CC(=O)NCCN(CC(=O)NCCN(CC(=O)NCCN(CC(=O)N[C@@H](CCCCN)C(=O)CN)C(=O)Cn1ccc(N)nc1=O)C(=O)Cn1cnc2c(O)nc(N)nc21)C(=O)Cn1ccc(N)nc1=O)C(=O)Cn1cnc2c(O)nc(N)nc21)C(=O)Cn1cc(C)c(=O)[nH]c1=O |
| 7.80 | 5.4 | C[C@H](NC(=O)CN(CCNC(=O)CN(CCNC(=O)CCC(=O)O)C(=O)Cn1cnc2c(=O)[nH]c(N)nc21)C(=O)Cn1ccc(N)nc1=O)C(=O)N[C@@H](CCCNC(=N)N)C(=O)N[C@@H](CCCNC(=N)N)C(=O)N[C@@H](CC(N)=O)C(=O)N[C@@H](CCCNC(=N)N)C(=O)N[C@@H](CCCNC(=N)N)C(=O)N[C@@H](CCCNC(=N)N)C(=O)N[C@@H](CCCNC(=N)N)C(=O)N[C@@H](Cc1c[nH]c2ccccc12)C(=O)N[C@@H](CCCNC(=N)N)C(=O)N[C@@H](CCC(=O)O)C(=O)N[C@@H](CCCNC(=N)N)C(=O)N[C@@H](CCC(N)=O)C(=O)N[C@H](CCCNC(=N)N)C(N)=O |
| 8.02 | 9 | C[C@H](NC(=O)CN(CCNC(=O)CN(CCNC(=O)CN(CCNC(=O)CCC(=O)O)C(=O)Cn1ccc(N)nc1=O)C(=O)Cn1cnc2c(=O)[nH]c(N)nc21)C(=O)Cn1ccc(N)nc1=O)C(=O)N[C@@H](CCCNC(=N)N)C(=O)N[C@@H](CCCNC(=N)N)C(=O)N[C@@H](CC(N)=O)C(=O)N[C@@H](CCCNC(=N)N)C(=O)N[C@@H](CCCNC(=N)N)C(=O)N[C@@H](CCCNC(=N)N)C(=O)N[C@@H](CCCNC(=N)N)C(=O)N[C@@H](Cc1c[nH]c2ccccc12)C(=O)N[C@@H](CCCNC(=N)N)C(=O)N[C@@H](CCC(=O)O)C(=O)N[C@@H](CCCNC(=N)N)C(=O)N[C@@H](CCC(N)=O)C(=O)N[C@H](CCCNC(=N)N)C(N)=O |

The next lines start with the compound.

| Compound | pKd [1] | Ratio [2] |
| --- | --- | --- |
| Cc1cn(CC(=O)N(CCNC(=O)CCC(=O)O)CC(=O)NCCN(CC(=O)NCCN(CC(=O)NCCN(CC(=O)NCCN(CC(=O)N[C@@H](C)C(=O)N[C@@H](CCCNC(=N)N)C(=O)N[C@@H](CCCNC(=N)N)C(=O)N[C@@H](CC(N)=O)C(=O)N[C@@H](CCCNC(=N)N)C(=O)N[C@@H](CCCNC(=N)N)C(=O)N[C@@H](CCCNC(=N)N)C(=O)N[C@@H](CCCNC(=N)N)C(=O)N[C@@H](Cc2c[nH]c3ccccc23)C(=O)N[C@@H](CCCNC(=N)N)C(=O)N[C@@H](CCC(=O)O)C(=O)N[C@@H](CCCNC(=N)N)C(=O)N[C@@H](CCC(N)=O)C(=O)N[C@H](CCCNC(=N)N)C(N)=O)C(=O)Cn2ccc(N)nc2=O)C(=O)Cn2cnc3c(=O)[nH]c(N)nc32)C(=O)Cn2ccc(N)nc2=O)C(=O)Cn2cnc3c(=O)[nH]c(N)nc32)c(=O)[nH]c1=O | 8.27 | 16 |
| C[C@H](NC(=O)CN(CCNC(=O)CN(CCNC(=O)CCC(=O)O)C(=O)Cn1cnc2c(N)ncnc21)C(=O)Cn1ccc(N)nc1=O)C(=O)N[C@@H](CCCNC(=N)N)C(=O)N[C@@H](CCCNC(=N)N)C(=O)N[C@@H](CC(N)=O)C(=O)N[C@@H](CCCNC(=N)N)C(=O)N[C@@H](CCCNC(=N)N)C(=O)N[C@@H](CCCNC(=N)N)C(=O)N[C@@H](CCCNC(=N)N)C(=O)N[C@@H](Cc1c[nH]c2ccccc12)C(=O)N[C@@H](CCCNC(=N)N)C(=O)N[C@@H](CCC(=O)O)C(=O)N[C@@H](CCCNC(=N)N)C(=O)N[C@@H](CCC(N)=O)C(=O)N[C@H](CCCNC(=N)N)C(N)=O | 7.55 | 3.1 |
| CC(=O)N(CCNC(=O)NCC(=O)O)CC(=O)N[C@H](C)C(=O)N[C@@H](CCCNC(=N)N)C(=O)N[C@@H](CCCNC(=N)N)C(=O)N[C@@H](CC(N)=O)C(=O)N[C@@H](CCCNC(=N)N)C(=O)N[C@@H](CCCNC(=N)N)C(=O)N[C@@H](CCCNC(=N)N)C(=O)N[C@@H](CCCNC(=N)N)C(=O)N[C@@H](Cc1c[nH]c2ccccc12)C(=O)N[C@@H](CCCNC(=N)N)C(=O)N[C@@H](CCC(=O)O)C(=O)N[C@@H](CCCNC(=N)N)C(=O)N[C@@H](CCC(N)=O)C(=O)N[C@H](CCCNC(=N)N)C(N)=O | 7.36 | 2 |
| C[C@H](NC(=O)CN(CCNC(=O)CCC(=O)O)C(=O)Cn1ccc(N)nc1=O)C(=O)N[C@@H](CCCNC(=N)N)C(=O)N[C@@H](CCCNC(=N)N)C(=O)N[C@@H](CC(N)=O)C(=O)N[C@@H](CCCNC(=N)N)C(=O)N[C@@H](CCCNC(=N)N)C(=O)N[C@@H](CCCNC(=N)N)C(=O)N[C@@H](CCCNC(=N)N)C(=O)N[C@@H](Cc1c[nH]c2ccccc12)C(=O)N[C@@H](CCCNC(=N)N)C(=O)N[C@@H](CCC(=O)O)C(=O)N[C@@H](CCCNC(=N)N)C(=O)N[C@@H](CCC(N)=O)C(=O)N[C@H](CCCNC(=N)N)C(N)=O | 7.51 | 2.8 |
| Cc1cn(CC(=O)N(CCNC(=O)CCC(=O)O)CC(=O)NCCN(CC(=O)NCCN(CC(=O)N[C@@H](C)C(=O)N[C@@H](CCCNC(=N)N)C(=O)N[C@@H](CCCNC(=N)N)C(=O)N[C@@H](CC(N)=O)C(=O)N[C@@H](CCCNC(=N)N)C(=O)N[C@@H](CCCNC(=N)N)C(=O)N[C@@H](CCCNC(=N)N)C(=O)N[C@@H](CCCNC(=N)N)C(=O)N[C@@H](Cc2c[nH]c3ccccc23)C(=O)N[C@@H](CCCNC(=N)N)C(=O)N[C@@H](CCC(=O)O)C(=O)N[C@@H](CCCNC(=N)N)C(=O)N[C@@H](CCC(N)=O)C(=O)N[C@H](CCCNC(=N)N)C(N)=O)C(=O)Cn2ccc(N)nc2=O)C(=O)Cn2cnc3c(=O)[nH]c(N)nc32)c(=O)[nH]c1=O | 7.77 | 5.1 |
